Data from PubChem BioAssay (NCI).
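Values below derive from 48-hour exposures of cells grown in 96-well plates, with endpoints linearly interpolated between the two concentrations bracketing the appropriate inhibition level. GI50: concentration for 50% inhibition of growth. TGI: concentration producing complete growth inhibition.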

Key:
Test in all cases: NCI tumour cell line growth inhibition, 48 h
A498 renal = tested on: A498 renal
UO-31 renal = tested on: UO-31 renal
NCI-H23 lung = tested on: NCI-H23 lung
UACC-62 melanoma = tested on: UACC-62 melanoma
SF-539 CNS = tested on: SF-539 CNS
SW-620 colon = tested on: SW-620 colon
HCC-2998 colon = tested on: HCC-2998 colon
OVCAR-5 ovarian = tested on: OVCAR-5 ovarian
OVCAR-3 ovarian = tested on: OVCAR-3 ovarian
HCT-15 colon = tested on: HCT-15 colon
NCI/ADR-RES ovarian = tested on: NCI/ADR-RES ovarian
OVCAR-8 ovarian = tested on: OVCAR-8 ovarian
MOLT-4 leukemia = tested on: MOLT-4 leukemia
HS 578T breast = tested on: HS 578T breast
SF-295 CNS = tested on: SF-295 CNS
HOP-62 NSCLC = tested on: HOP-62 NSCLC
CAKI-1 renal = tested on: CAKI-1 renal
TK-10 renal = tested on: TK-10 renal
SK-MEL-28 melanoma = tested on: SK-MEL-28 melanoma
PC-3 prostate = tested on: PC-3 prostate
COLO 205 colon = tested on: COLO 205 colon
SF-268 CNS = tested on: SF-268 CNS
HT29 colon = tested on: HT29 colon
786-0 renal = tested on: 786-0 renal
T-47D breast = tested on: T-47D breast
A549 NSCLC = tested on: A549 NSCLC
OVCAR-4 ovarian = tested on: OVCAR-4 ovarian
LOX IMVI melanoma = tested on: LOX IMVI melanoma
SK-OV-3 ovarian = tested on: SK-OV-3 ovarian
HL-60(TB) leukemia = tested on: HL-60(TB) leukemia
SR leukemia = tested on: SR leukemia
MCF7 breast = tested on: MCF7 breast
SK-MEL-2 melanoma = tested on: SK-MEL-2 melanoma
U251 CNS = tested on: U251 CNS
BT-549 breast = tested on: BT-549 breast
EKVX NSCLC = tested on: EKVX NSCLC
ACHN renal = tested on: ACHN renal
HCT-116 colon = tested on: HCT-116 colon
HOP-92 NSCLC = tested on: HOP-92 NSCLC
NCI-H522 lung = tested on: NCI-H522 lung
K-562 leukemia = tested on: K-562 leukemia
NCI-H226 lung = tested on: NCI-H226 lung
CCRF-CEM leukemia = tested on: CCRF-CEM leukemia
M14 melanoma = tested on: M14 melanoma
SN12C renal = tested on: SN12C renal
KM12 colon = tested on: KM12 colon
IGROV1 ovarian = tested on: IGROV1 ovarian
SK-MEL-5 melanoma = tested on: SK-MEL-5 melanoma
DU-145 prostate = tested on: DU-145 prostate
SNB-19 CNS = tested on: SNB-19 CNS
RXF 393 renal = tested on: RXF 393 renal
SNB-75 CNS = tested on: SNB-75 CNS
MDA-MB-231 breast = tested on: MDA-MB-231 breast
RPMI-8226 leukemia = tested on: RPMI-8226 leukemia

N#Cc1c(N/N=C/c2c(Cl)cccc2Cl)nc(N)nc1N1CCCC1
GI50 (A498 renal): 0.502 µM
TGI (A498 renal): 3.18 µM
GI50 (UO-31 renal): 5.36 µM
TGI (UO-31 renal): > 100 µM
GI50 (NCI-H23 lung): 1.16 µM
TGI (NCI-H23 lung): 9.11 µM
GI50 (UACC-62 melanoma): 1.47 µM
TGI (UACC-62 melanoma): > 100 µM
GI50 (SF-539 CNS): 1.77 µM
TGI (SF-539 CNS): 5.58 µM
GI50 (SW-620 colon): 1.38 µM
TGI (SW-620 colon): > 100 µM
GI50 (HCC-2998 colon): 1.34 µM
TGI (HCC-2998 colon): 21 µM
GI50 (OVCAR-5 ovarian): 8.31 µM
TGI (OVCAR-5 ovarian): > 100 µM
GI50 (OVCAR-3 ovarian): 0.878 µM
TGI (OVCAR-3 ovarian): > 100 µM
GI50 (HCT-15 colon): 0.645 µM
TGI (HCT-15 colon): 20 µM
GI50 (NCI/ADR-RES ovarian): 1.5 µM
TGI (NCI/ADR-RES ovarian): 6.98 µM
GI50 (OVCAR-8 ovarian): 3.53 µM
TGI (OVCAR-8 ovarian): 40.5 µM
GI50 (MOLT-4 leukemia): 2.88 µM
TGI (MOLT-4 leukemia): 18.3 µM
GI50 (HS 578T breast): 3.05 µM
TGI (HS 578T breast): > 100 µM
GI50 (SF-295 CNS): 1.02 µM
TGI (SF-295 CNS): > 100 µM
GI50 (HOP-62 NSCLC): 1.7 µM
TGI (HOP-62 NSCLC): > 100 µM
GI50 (CAKI-1 renal): 1.29 µM
TGI (CAKI-1 renal): > 100 µM
GI50 (TK-10 renal): 5.9 µM
TGI (TK-10 renal): > 100 µM
GI50 (SK-MEL-28 melanoma): 16.4 µM
TGI (SK-MEL-28 melanoma): > 100 µM
GI50 (PC-3 prostate): 2.89 µM
TGI (PC-3 prostate): 40 µM
GI50 (COLO 205 colon): 5.29 µM
TGI (COLO 205 colon): > 100 µM
GI50 (SF-268 CNS): > 100 µM
TGI (SF-268 CNS): > 100 µM
GI50 (HT29 colon): 1.96 µM
TGI (HT29 colon): > 100 µM
GI50 (786-0 renal): 3.93 µM
TGI (786-0 renal): > 100 µM
GI50 (T-47D breast): > 100 µM
TGI (T-47D breast): > 100 µM
GI50 (A549 NSCLC): 3.65 µM
TGI (A549 NSCLC): > 100 µM
GI50 (OVCAR-4 ovarian): > 100 µM
TGI (OVCAR-4 ovarian): > 100 µM
GI50 (LOX IMVI melanoma): 2.16 µM
TGI (LOX IMVI melanoma): > 100 µM
GI50 (SK-OV-3 ovarian): 5.12 µM
TGI (SK-OV-3 ovarian): > 100 µM
GI50 (HL-60(TB) leukemia): 3.4 µM
TGI (HL-60(TB) leukemia): 7.04 µM
GI50 (SR leukemia): 0.795 µM
TGI (SR leukemia): 3.03 µM
GI50 (MCF7 breast): 5.8 µM
TGI (MCF7 breast): > 100 µM
GI50 (SK-MEL-2 melanoma): 5.55 µM
TGI (SK-MEL-2 melanoma): > 100 µM
GI50 (U251 CNS): 2.51 µM
TGI (U251 CNS): > 100 µM
GI50 (BT-549 breast): 11.3 µM
TGI (BT-549 breast): > 100 µM
GI50 (EKVX NSCLC): 39.7 µM
TGI (EKVX NSCLC): > 100 µM
GI50 (ACHN renal): 3.18 µM
TGI (ACHN renal): > 100 µM
GI50 (HCT-116 colon): 1.01 µM
TGI (HCT-116 colon): 16.8 µM
GI50 (HOP-92 NSCLC): 9.41 µM
TGI (HOP-92 NSCLC): > 100 µM
GI50 (NCI-H522 lung): 2.63 µM
TGI (NCI-H522 lung): 13.3 µM
GI50 (K-562 leukemia): 2.87 µM
TGI (K-562 leukemia): 6.75 µM
GI50 (NCI-H226 lung): 11.8 µM
TGI (NCI-H226 lung): > 100 µM
GI50 (CCRF-CEM leukemia): 3.52 µM
TGI (CCRF-CEM leukemia): 16.1 µM
GI50 (M14 melanoma): 1.36 µM
TGI (M14 melanoma): > 100 µM
GI50 (SN12C renal): 4.68 µM
TGI (SN12C renal): > 100 µM
GI50 (KM12 colon): 3.02 µM
TGI (KM12 colon): > 100 µM
GI50 (IGROV1 ovarian): 0.783 µM
TGI (IGROV1 ovarian): 97.3 µM
GI50 (SK-MEL-5 melanoma): 0.722 µM
TGI (SK-MEL-5 melanoma): 7.11 µM
GI50 (DU-145 prostate): 5.23 µM
TGI (DU-145 prostate): > 100 µM
GI50 (SNB-19 CNS): 7.14 µM
TGI (SNB-19 CNS): > 100 µM
GI50 (RXF 393 renal): 2.34 µM
TGI (RXF 393 renal): > 100 µM
GI50 (SNB-75 CNS): 2.01 µM
TGI (SNB-75 CNS): > 100 µM
GI50 (MDA-MB-231 breast): 3.25 µM
TGI (MDA-MB-231 breast): 42.2 µM
GI50 (RPMI-8226 leukemia): 2.56 µM
TGI (RPMI-8226 leukemia): 8.21 µM
